{
  "source": "patent US11802135B2",
  "about": "“Lysophosphatidic acid derivative” (MITSUBISHI TANABE PHARMA CORPORATION, priority 2021, dated 2023)",
  "key": {"human LPA4 receptor": {"biological_target": "T1, human LPA4 receptor (Homo sapiens, UniProt Q99677)", "T1 construct": "expressed in transfected cells; host or cells: rat hepatocellular carcinoma cell line RH7777, targeted integration at the rRosa26 site", "T1 sequence (Q99677 whole entry)": "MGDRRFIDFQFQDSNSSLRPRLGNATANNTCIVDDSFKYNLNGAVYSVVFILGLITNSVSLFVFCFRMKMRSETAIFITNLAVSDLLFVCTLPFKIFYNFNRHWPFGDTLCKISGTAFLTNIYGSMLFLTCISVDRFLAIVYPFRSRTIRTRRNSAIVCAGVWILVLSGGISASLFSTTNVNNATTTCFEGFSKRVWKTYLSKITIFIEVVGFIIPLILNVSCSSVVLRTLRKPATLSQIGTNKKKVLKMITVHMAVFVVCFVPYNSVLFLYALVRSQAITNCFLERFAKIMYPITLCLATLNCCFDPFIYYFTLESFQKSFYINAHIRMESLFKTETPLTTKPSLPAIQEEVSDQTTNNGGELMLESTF", "experiment": "LPA4/SRE-luc reporter assay in RH7777 cells stably expressing human LPA4 receptor and SRE-Luc2", "assay_type": "cell-based", "description": "(§1) A stably expressing cell line that constantly expresses the human LPA4 receptor and SRE-Luc2 was established by the gene targeting introduction method of the rat hepatocellular carcinoma cell line RH7777 into rRosa26 site. Similarly, stably expressing cell lines for human LPA1 receptor and SRE-Luc2 were also established. Each cell line was seeded on a collagen-coated dish and maintained in culture, and cells were collected with trypsin EDTA and the required number (5×10^3 cells/well) was seeded on a 96-well plate. After culturing overnight at 37° C., LPA (Avanti Polar Lipids, Inc.) or each Example compound diluted with an assay medium added or not added with BSA was added, and the cells were cultured at 37° C. for 6 hr. Thereafter, a luciferase detection reagent (Bright-Glo, Promega) was added, and the chemiluminescence amount was quantified with an Envision (registered trade mark) multi-label counter (PerkinElmer) and used as an index of agonist activity.\n(§2) The EC50 value of LPA or each Example compound was calculated using the […] Graph pad Prism for Windows ver.5.02 and ver.7.04. % Emax was expressed as the ratio of the maximum response (Emax) of LPA or each Example compound to the maximum response (Emax) of the positive control compound VPC 31144S (N-{(1S)-2-hydroxy-1-[(phosphonooxy)methyl]ethyl}(9Z) cctadec-9-enamide), with the Emax of the positive control compound VPC 31144S as 100%."}, "human LPA1 receptor": {"biological_target": "T2, human LPA1 receptor (Homo sapiens, UniProt Q92633)", "T2 construct": "expressed in transfected cells; host or cells: rat hepatocellular carcinoma cell line RH7777 (made 'similarly' to the LPA4 line)", "T2 sequence (Q92633 whole entry)": "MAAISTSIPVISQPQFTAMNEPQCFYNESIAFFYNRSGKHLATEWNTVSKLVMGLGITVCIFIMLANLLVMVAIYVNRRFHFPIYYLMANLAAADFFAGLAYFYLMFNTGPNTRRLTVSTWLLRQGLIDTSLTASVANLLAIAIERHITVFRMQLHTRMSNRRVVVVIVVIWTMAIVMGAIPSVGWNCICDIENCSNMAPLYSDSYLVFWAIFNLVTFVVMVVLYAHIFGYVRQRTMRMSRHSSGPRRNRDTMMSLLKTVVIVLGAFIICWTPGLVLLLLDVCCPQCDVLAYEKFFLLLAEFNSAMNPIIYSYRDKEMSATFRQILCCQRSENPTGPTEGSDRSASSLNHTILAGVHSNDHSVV", "experiment": "LPA1/SRE-luc reporter assay in RH7777 cells stably expressing human LPA1 receptor and SRE-Luc2", "assay_type": "cell-based", "description": "as §1, §2"}, "Balb/c nu/nu mouse": {"system": "Balb/c nu/nu mouse", "experiment": "Gel blood flow ratio in mice transplanted with Matrigel containing basicFGF", "assay_type": "in vivo", "conditions": "3 mg/kg tail vein once per day, day 5 to 7 after transplantation; vs solvent administration group, t-test p<0.01", "description": "A 5-week-old male Balb/c nu/nu mouse (CLEA Japan, Inc.) was subcutaneously transplanted with 500 μL of Matrigel (Corning) admixed with recombinant mouse basicFGF (Biobyt Ltd.) to a final concentration of 200 ng/mL. The test compound was dissolved in a 50% aqueous ethanol solution at a concentration of 10 mg/mL to give a stock solution, diluted with phosphate-buffered saline (PBS) immediately before administration, and used for consecutive administration into the tail vein of mouse at a dose of 3 mg/kg once per day from the 5th day to the 7th day of the transplantation. On the 7th day of transplantation, after 4 hours from the administration of the test compound, Genhance750 (PerkinElmer) was administered to the tail vein, and 20 min later under isoflurane anesthesia, whole body fluorescence at 800 nm was imaged using an in vivo analyzer (IVIS Spectrum, PerkinElmer) at an excitation wavelength of 745 nm. The gel blood flow ratio was calculated by dividing the radiance of Matrigel by the radiance of the auricle."}, "[1]": {"system": "mouse lung cancer cell line LLC-1", "experiment": "Tumor volume in mice transplanted with LLC-1, combination with paclitaxel", "assay_type": "in vivo", "description": "An 8-week-old female […] mouse (Nippon SLC) was subcutaneously transplanted with 1×10^6 cells/100 μL of mouse lung cancer cell line LLC-1 suspended in D-MEM medium containing 50% Matrigel (Corning). On the 9th day after transplantation of the cell line, 8 mice were grouped such that the tumor volume and body weight were uniform (Day 0). The tumor volume was calculated by measuring the minor axis and the major axis of the tumor with a vernier caliper (minor axis x minor axis x major axis/2). Example compound 16 was intraperitoneally administered every day from Day 0 at a dose of 30 mg/kg. As an existing anticancer drug, paclitaxel (paclitaxel injection, Pfizer) was intraperitoneally administered to mice at a dose of 20 mg/kg twice in total on Day 3 and Day 10. The tumor volume of each group was calculated every other day from Day 0 to Day 15. Phosphate-buffered saline in the same amount as the drug solution was administered to the solvent administration group."}, "[2]": {"experiment": "Evaluation of chemical stability, preserved at 60° C. (sealed) for a week, UPLC", "assay_type": "physicochemical", "description": "About 0.5 mg of each of test sample (lysophosphatidic acid (LPA) and Example compound 16) preserved at 60° C. (sealed) for a week and non-preserved sample (at the start of testing) was weighed, and dissolved in a mixed solution (1 mL) of acetonitrile/water (1:1) to prepare test solutions. Test was performed by the liquid chromatographic method under the following conditions, and individual peak area % was determined. It was measured by Waters ACQUITY UPLC under the following conditions. • Detector: photodiode array (measurement wavelength 220 nm) • Column: Waters ACQUITY BEH C18 (2.1 mm×100 mm, 1.7 μm) • Column temperature: constant temperature around 40° C. • Mobile phase: Solution A; […] ammonium acetate in water (pH 8.5), • Solution B; […] ammonium acetate in acetonitrile/water (17:3) (pH8.5) • Concentration gradient control: B % 2→100% (15 min) • Flow rate: 0.5 mL/min • Injection volume: […] <Experimental Results>"}, "[3]": {"conditions": "BSA not added, read-out: LPA4/SRE-luc EC50"}, "[4]": {"conditions": "RH7777, read-out: LPA4/SRE-luc % Emax"}, "[5]": {"conditions": "BSA not added, read-out: LPA1/SRE-luc EC50"}, "[6]": {"conditions": "BSA added, read-out: LPA4/SRE-luc EC50"}, "[7]": {"conditions": "RH7777, BSA added, Emax of positive control VPC 31144S as 100%, read-out: LPA4/SRE-luc % Emax"}, "[8]": {"conditions": "BSA added, read-out: LPA1/SRE-luc EC50"}},
  "note": "Where a name gives a salt, the structure may show the parent alone. Read-outs that look alike come from different tables or passages of the source.",
  "data": [
    {"smiles": "CCc1ccc(CCCCCCCCC(=O)N2CC(OP(=O)(O)O)C2)cc1", "note": "[Example 16, 1-[9-(4-Ethylphenyl)nonanoyl]azetidin-3-yl dihydrogen phosphate]", "values": [
      {"measurement": "EC50", "setting": "human LPA4 receptor; [3]", "result": 12, "unit": "nM"},
      {"measurement": "Emax", "setting": "human LPA4 receptor; [4]", "result": 162, "unit": "%"},
      {"measurement": "EC50", "setting": "human LPA1 receptor; [5]", "result": "> 10000", "unit": "nM"},
      {"measurement": "gel blood flow ratio", "setting": "Balb/c nu/nu mouse", "result": "significantly increased"}
    ]},
    {"smiles": "CCc1ccc(CCCCCCCCC(=O)N2CC(OP(=O)(O)O)C2)cc1", "note": "[Example compound 16, 1-[9-(4-Ethylphenyl)nonanoyl]azetidin-3-yl dihydrogen phosphate]", "values": [
      {"measurement": "tumor volume on Day 15", "setting": "[1]; 30 mg/kg i.p. every day combined with paclitaxel 20 mg/kg, vs paclitaxel alone group, t-test p<0.01", "result": "further reduced significantly"},
      {"measurement": "chemical stability in comparison with LPA", "setting": "[2]; 60° C. (sealed) for a week", "result": "high chemical stability"},
      {"measurement": "total ratio (%) of increment of related substances", "setting": "[2]; 60° C., humidity without artificial control, 1 week", "result": 1.29, "unit": "%"}
    ]},
    {"smiles": "CCCCc1ccc(CCCCCCCCC(=O)N2CC(OP(=O)(O)O)C2)cc1", "note": "[Example compound 70, 1-[9-(4-Butylphenyl)nonanoyl]azetidin-3-yl dihydrogen phosphate ammonium salt]", "values": [
      {"measurement": "EC50", "setting": "human LPA4 receptor; [3]", "result": "< 41", "unit": "nM"},
      {"measurement": "Emax", "setting": "human LPA4 receptor; RH7777, BSA not added, Emax of positive control VPC 31144S as 100%, read-out: LPA4/SRE-luc % Emax", "result": 239, "unit": "%"},
      {"measurement": "EC50", "setting": "human LPA1 receptor; [5]", "result": "> 10000", "unit": "nM"},
      {"measurement": "gel blood flow ratio", "setting": "Balb/c nu/nu mouse", "result": "significantly increased"}
    ]},
    {"smiles": "O=C(CCCCCCCCc1ccc(-c2ccccc2)cc1)N1CC(OP(=O)(O)O)C1", "note": "[Example compound 82, 1-[9-(Biphenyl-4-yl)nonanoyl]azetidin-3-yl dihydrogen phosphate]", "values": [
      {"measurement": "EC50", "setting": "human LPA4 receptor; [6]", "result": 1.9, "unit": "nM"},
      {"measurement": "Emax", "setting": "human LPA4 receptor; [7]", "result": 129, "unit": "%"},
      {"measurement": "EC50", "setting": "human LPA1 receptor; [8]", "result": "> 10000", "unit": "nM"},
      {"measurement": "gel blood flow ratio", "setting": "Balb/c nu/nu mouse", "result": "significantly increased"}
    ]},
    {"smiles": "CC(C)(C)c1ccc(CCCCCCCCC(=O)N2CC(OP(=O)(O)O)C2)cc1", "note": "[Example compound 84, 1-[9-(4-tert-Butylphenyl)nonanoyl]azetidin-3-yl dihydrogen phosphate]", "values": [
      {"measurement": "EC50", "setting": "human LPA4 receptor; [6]", "result": 4.1, "unit": "nM"},
      {"measurement": "Emax", "setting": "human LPA4 receptor; [7]", "result": 94, "unit": "%"},
      {"measurement": "EC50", "setting": "human LPA1 receptor; [8]", "result": "> 3000", "unit": "nM"},
      {"measurement": "gel blood flow ratio", "setting": "Balb/c nu/nu mouse", "result": "significantly increased"}
    ]},
    {"smiles": "CCCCCCCCCCCOc1cccc(-c2ccnc(NC[C@@H](C)OP(O)(O)=S)c2)c1", "note": "[Example compound 138, O-[(2R)-1-({4-[3-(Undecyloxy)phenyl]pyridin-2-yl}amino)propan-2-yl] dihydrogen phosphorothioate-ammonium salt]", "values": [
      {"measurement": "EC50", "setting": "human LPA4 receptor", "result": "< 41", "unit": "nM"},
      {"measurement": "Emax", "setting": "human LPA4 receptor; [4]", "result": 73, "unit": "%"},
      {"measurement": "EC50", "setting": "human LPA1 receptor", "result": "> 10000", "unit": "nM"}
    ]},
    {"smiles": "CCCCCCCCCCCOc1cccc(-c2ccnc(N[C@@H]3CCC[C@@H]3OP(=O)(O)O)c2)c1", "note": "[Example compound 142, (1S,2R)-2-({4-[3-(Undecyloxy)phenyl]pyridin-2-yl}amino)cyclopentyl dihydrogen phosphate ammonium salt]", "values": [
      {"measurement": "EC50", "setting": "human LPA4 receptor; [6]", "result": 43, "unit": "nM"},
      {"measurement": "Emax", "setting": "human LPA4 receptor; [7]", "result": 103, "unit": "%"},
      {"measurement": "EC50", "setting": "human LPA1 receptor; [8]", "result": "> 10000", "unit": "nM"}
    ]},
    {"smiles": "CC(=O)O[C@H]1C(=O)[C@@]2(C)[C@H]([C@H](OC(=O)c3ccccc3)[C@]3(O)C[C@H](OC(=O)[C@H](O)[C@@H](NC(=O)c4ccccc4)c4ccccc4)C(C)=C1C3(C)C)[C@]1(OC(C)=O)CO[C@@H]1C[C@@H]2O", "note": "[paclitaxel, reference compound]", "values": [
      {"measurement": "tumor volume on Day 15", "setting": "[1]; paclitaxel alone 20 mg/kg i.p. Day 3 and Day 10, vs solvent administration group, t-test p<0.05", "result": "significantly smaller"}
    ]}
  ]
}
